From ChEMBL document CHEMBL4311974, “Synthesis of coumarin-sulfonamide derivatives and determination of their cytotoxicity, carbonic anhydrase inhibitory and molecular docking studies” (Eur J Med Chem, 2019)

Target: Carbonic anhydrase 1 (Homo sapiens, UniProt P00915)
Experiment: not given
Conditions: not given

Sequence of Carbonic anhydrase 1 (P00915 whole entry): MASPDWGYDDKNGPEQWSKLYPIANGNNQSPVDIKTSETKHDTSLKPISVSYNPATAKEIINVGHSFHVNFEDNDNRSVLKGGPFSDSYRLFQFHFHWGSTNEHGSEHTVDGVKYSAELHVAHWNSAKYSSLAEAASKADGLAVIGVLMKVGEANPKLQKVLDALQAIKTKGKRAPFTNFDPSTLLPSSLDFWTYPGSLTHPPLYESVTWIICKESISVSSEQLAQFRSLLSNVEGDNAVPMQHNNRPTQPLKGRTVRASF

| SMILES | Ki [µM] |
| --- | --- |
| C#CCOc1ccc([N+](=O)[O-])cc1/C=N/Cc1ccc(S(N)(=O)=O)cc1 | > 10 |
| CCN(CC)c1ccc(C=O)c(OCc2cn(CCCOc3ccc4ccc(=O)oc4c3)nn2)c1 | > 10 |
| NS(=O)(=O)c1ccc(C/N=C/c2cccc(OCc3cn(CCCOc4ccc5ccc(=O)oc5c4)nn3)c2)cc1 | > 10 |
| C#CCOc1cc(N(CC)CC)ccc1/C=N/Cc1ccc(S(N)(=O)=O)cc1 | > 10 |
| COc1cc(C=O)ccc1OCc1cn(CCCOc2ccc3ccc(=O)oc3c2)nn1 | > 10 |
| C#CCOc1ccc2ccccc2c1/C=N/Cc1ccc(S(N)(=O)=O)cc1 | > 10 |
| C#CCOc1cccc(/C=N/Cc2ccc(S(N)(=O)=O)cc2)c1 | > 10 |
| NS(=O)(=O)c1ccc(C/N=C/c2c(OCc3cn(CCCOc4ccc5ccc(=O)oc5c4)nn3)ccc3ccccc23)cc1 | > 10 |
| CCN(CC)c1ccc(/C=N/Cc2ccc(S(N)(=O)=O)cc2)c(OCc2cn(CCCOc3ccc4ccc(=O)oc4c3)nn2)c1 | > 10 |
| O=Cc1cccc(OCc2cn(CCCOc3ccc4ccc(=O)oc4c3)nn2)c1 | > 10 |
| NS(=O)(=O)c1ccc(C/N=C/c2ccccc2OCc2cn(CCCOc3ccc4ccc(=O)oc4c3)nn2)cc1 | > 10 |
| O=Cc1cc(Br)ccc1OCc1cn(CCCOc2ccc3ccc(=O)oc3c2)nn1 | > 10 |
| C#CCOc1c(/C=N/Cc2ccc(S(N)(=O)=O)cc2)cccc1OC | > 10 |
| C#CCOc1ccc(/C=N/Cc2ccc(S(N)(=O)=O)cc2)cc1OC | > 10 |
| C#CCOc1ccc(/C=N/Cc2ccc(S(N)(=O)=O)cc2)cc1 | > 10 |
| COc1cccc(/C=N/Cc2ccc(S(N)(=O)=O)cc2)c1OCc1cn(CCCOc2ccc3ccc(=O)oc3c2)nn1 | > 10 |
| NS(=O)(=O)c1ccc(C/N=C/c2ccc(OCc3cn(CCCOc4ccc5ccc(=O)oc5c4)nn3)cc2)cc1 | > 10 |
| COc1cc(/C=N/Cc2ccc(S(N)(=O)=O)cc2)ccc1OCc1cn(CCCOc2ccc3ccc(=O)oc3c2)nn1 | > 10 |
| C#CCOc1ccccc1/C=N/Cc1ccc(S(N)(=O)=O)cc1 | > 10 |
| O=Cc1ccc(OCc2cn(CCCOc3ccc4ccc(=O)oc4c3)nn2)cc1 | > 10 |
| COc1cccc(C=O)c1OCc1cn(CCCOc2ccc3ccc(=O)oc3c2)nn1 | > 10 |
| NS(=O)(=O)c1ccc(C/N=C/c2cc(Br)ccc2OCc2cn(CCCOc3ccc4ccc(=O)oc4c3)nn2)cc1 | > 10 |
| O=Cc1ccccc1OCc1cn(CCCOc2ccc3ccc(=O)oc3c2)nn1 | > 10 |
| NS(=O)(=O)c1ccc(C/N=C/c2cc([N+](=O)[O-])ccc2OCc2cn(CCCOc3ccc4ccc(=O)oc4c3)nn2)cc1 | > 10 |
| O=Cc1c(OCc2cn(CCCOc3ccc4ccc(=O)oc4c3)nn2)ccc2ccccc12 | > 10 |
| O=Cc1cc([N+](=O)[O-])ccc1OCc1cn(CCCOc2ccc3ccc(=O)oc3c2)nn1 | > 10 |
| C#CCOc1ccc(Br)cc1/C=N/Cc1ccc(S(N)(=O)=O)cc1 | > 10 |

Target: Carbonic anhydrase 2 (Homo sapiens, UniProt P00918)
Experiment: not given
Conditions: not given

| SMILES | Ki [µM] |
| --- | --- |
| CCN(CC)c1ccc(C=O)c(OCc2cn(CCCOc3ccc4ccc(=O)oc4c3)nn2)c1 | > 10 |
| COc1cc(C=O)ccc1OCc1cn(CCCOc2ccc3ccc(=O)oc3c2)nn1 | > 10 |
| O=Cc1cccc(OCc2cn(CCCOc3ccc4ccc(=O)oc4c3)nn2)c1 | > 10 |
| O=Cc1cc(Br)ccc1OCc1cn(CCCOc2ccc3ccc(=O)oc3c2)nn1 | > 10 |
| O=Cc1ccc(OCc2cn(CCCOc3ccc4ccc(=O)oc4c3)nn2)cc1 | > 10 |
| COc1cccc(C=O)c1OCc1cn(CCCOc2ccc3ccc(=O)oc3c2)nn1 | > 10 |
| O=Cc1c(OCc2cn(CCCOc3ccc4ccc(=O)oc4c3)nn2)ccc2ccccc12 | > 10 |
| O=Cc1cc([N+](=O)[O-])ccc1OCc1cn(CCCOc2ccc3ccc(=O)oc3c2)nn1 | > 10 |

Target: Carbonic anhydrase 9 (Homo sapiens, UniProt Q16790)
Experiment: not given
Conditions: not given

| SMILES | Ki [µM] |
| --- | --- |
| C#CCOc1ccc([N+](=O)[O-])cc1/C=N/Cc1ccc(S(N)(=O)=O)cc1 | 0.212 |
| CCN(CC)c1ccc(C=O)c(OCc2cn(CCCOc3ccc4ccc(=O)oc4c3)nn2)c1 | 0.158 |
| NS(=O)(=O)c1ccc(C/N=C/c2cccc(OCc3cn(CCCOc4ccc5ccc(=O)oc5c4)nn3)c2)cc1 | 0.955 |
| C#CCOc1cc(N(CC)CC)ccc1/C=N/Cc1ccc(S(N)(=O)=O)cc1 | 0.198 |
| COc1cc(C=O)ccc1OCc1cn(CCCOc2ccc3ccc(=O)oc3c2)nn1 | 0.133 |
| C#CCOc1ccc2ccccc2c1/C=N/Cc1ccc(S(N)(=O)=O)cc1 | 1.09 |
| C#CCOc1cccc(/C=N/Cc2ccc(S(N)(=O)=O)cc2)c1 | 2.03 |
| NS(=O)(=O)c1ccc(C/N=C/c2c(OCc3cn(CCCOc4ccc5ccc(=O)oc5c4)nn3)ccc3ccccc23)cc1 | 0.0455 |
| CCN(CC)c1ccc(/C=N/Cc2ccc(S(N)(=O)=O)cc2)c(OCc2cn(CCCOc3ccc4ccc(=O)oc4c3)nn2)c1 | 2.18 |
| O=Cc1cccc(OCc2cn(CCCOc3ccc4ccc(=O)oc4c3)nn2)c1 | 0.192 |
| NS(=O)(=O)c1ccc(C/N=C/c2ccccc2OCc2cn(CCCOc3ccc4ccc(=O)oc4c3)nn2)cc1 | 0.187 |
| O=Cc1cc(Br)ccc1OCc1cn(CCCOc2ccc3ccc(=O)oc3c2)nn1 | 0.196 |
| C#CCOc1c(/C=N/Cc2ccc(S(N)(=O)=O)cc2)cccc1OC | 1.19 |
| C#CCOc1ccc(/C=N/Cc2ccc(S(N)(=O)=O)cc2)cc1OC | 0.0812 |
| C#CCOc1ccc(/C=N/Cc2ccc(S(N)(=O)=O)cc2)cc1 | 0.231 |
| COc1cccc(/C=N/Cc2ccc(S(N)(=O)=O)cc2)c1OCc1cn(CCCOc2ccc3ccc(=O)oc3c2)nn1 | 1.48 |
| NS(=O)(=O)c1ccc(C/N=C/c2ccc(OCc3cn(CCCOc4ccc5ccc(=O)oc5c4)nn3)cc2)cc1 | 0.169 |
| COc1cc(/C=N/Cc2ccc(S(N)(=O)=O)cc2)ccc1OCc1cn(CCCOc2ccc3ccc(=O)oc3c2)nn1 | 0.76 |
| C#CCOc1ccccc1/C=N/Cc1ccc(S(N)(=O)=O)cc1 | 1.07 |
| O=Cc1ccc(OCc2cn(CCCOc3ccc4ccc(=O)oc4c3)nn2)cc1 | 0.171 |
| COc1cccc(C=O)c1OCc1cn(CCCOc2ccc3ccc(=O)oc3c2)nn1 | 1.17 |
| NS(=O)(=O)c1ccc(C/N=C/c2cc(Br)ccc2OCc2cn(CCCOc3ccc4ccc(=O)oc4c3)nn2)cc1 | 0.16 |
| O=Cc1ccccc1OCc1cn(CCCOc2ccc3ccc(=O)oc3c2)nn1 | 0.128 |
| NS(=O)(=O)c1ccc(C/N=C/c2cc([N+](=O)[O-])ccc2OCc2cn(CCCOc3ccc4ccc(=O)oc4c3)nn2)cc1 | 0.857 |
| O=Cc1c(OCc2cn(CCCOc3ccc4ccc(=O)oc4c3)nn2)ccc2ccccc12 | 0.189 |
| O=Cc1cc([N+](=O)[O-])ccc1OCc1cn(CCCOc2ccc3ccc(=O)oc3c2)nn1 | 0.137 |
| C#CCOc1ccc(Br)cc1/C=N/Cc1ccc(S(N)(=O)=O)cc1 | 0.19 |

Test system: HT-29
Experiment: cells
Format: functional, cell-based
Conditions: Homo sapiens, HT-29, 24 h
Description: Cytotoxicity in human HT-29 cells assessed as reduction in cell viability incubated for 24 hrs under hypoxic condition by MTT assay

| SMILES | IC50 [µM] |
| --- | --- |
| C#CCOc1ccc([N+](=O)[O-])cc1/C=N/Cc1ccc(S(N)(=O)=O)cc1 | 34.8 |
| CCN(CC)c1ccc(C=O)c(OCc2cn(CCCOc3ccc4ccc(=O)oc4c3)nn2)c1 | 9.03 |
| NS(=O)(=O)c1ccc(C/N=C/c2cccc(OCc3cn(CCCOc4ccc5ccc(=O)oc5c4)nn3)c2)cc1 | 107 |
| C#CCOc1cc(N(CC)CC)ccc1/C=N/Cc1ccc(S(N)(=O)=O)cc1 | 62.8 |
| COc1cc(C=O)ccc1OCc1cn(CCCOc2ccc3ccc(=O)oc3c2)nn1 | 65.4 |
| C#CCOc1ccc2ccccc2c1/C=N/Cc1ccc(S(N)(=O)=O)cc1 | 46.1 |
| C#CCOc1cccc(/C=N/Cc2ccc(S(N)(=O)=O)cc2)c1 | 104 |
| NS(=O)(=O)c1ccc(C/N=C/c2c(OCc3cn(CCCOc4ccc5ccc(=O)oc5c4)nn3)ccc3ccccc23)cc1 | 17 |
| CCN(CC)c1ccc(/C=N/Cc2ccc(S(N)(=O)=O)cc2)c(OCc2cn(CCCOc3ccc4ccc(=O)oc4c3)nn2)c1 | 23.3 |
| O=Cc1cccc(OCc2cn(CCCOc3ccc4ccc(=O)oc4c3)nn2)c1 | 129 |
| NS(=O)(=O)c1ccc(C/N=C/c2ccccc2OCc2cn(CCCOc3ccc4ccc(=O)oc4c3)nn2)cc1 | 14.3 |
| O=Cc1cc(Br)ccc1OCc1cn(CCCOc2ccc3ccc(=O)oc3c2)nn1 | 7.47 |
| C#CCOc1c(/C=N/Cc2ccc(S(N)(=O)=O)cc2)cccc1OC | 81.3 |
| C#CCOc1ccc(/C=N/Cc2ccc(S(N)(=O)=O)cc2)cc1OC | 136 |
| C#CCOc1ccc(/C=N/Cc2ccc(S(N)(=O)=O)cc2)cc1 | 14.1 |
| COc1cccc(/C=N/Cc2ccc(S(N)(=O)=O)cc2)c1OCc1cn(CCCOc2ccc3ccc(=O)oc3c2)nn1 | 52.5 |
| NS(=O)(=O)c1ccc(C/N=C/c2ccc(OCc3cn(CCCOc4ccc5ccc(=O)oc5c4)nn3)cc2)cc1 | 125 |
| COc1cc(/C=N/Cc2ccc(S(N)(=O)=O)cc2)ccc1OCc1cn(CCCOc2ccc3ccc(=O)oc3c2)nn1 | 31.6 |
| C#CCOc1ccccc1/C=N/Cc1ccc(S(N)(=O)=O)cc1 | 31 |
| COc1cccc2c1C(=O)c1c(O)c3c(c(O)c1C2=O)C[C@@](O)(C(=O)CO)C[C@@H]3O[C@H]1C[C@H](N)[C@H](O)[C@H](C)O1 [DOXORUBICIN] | 5.38 |
| O=Cc1ccc(OCc2cn(CCCOc3ccc4ccc(=O)oc4c3)nn2)cc1 | 100 |
| COc1cccc(C=O)c1OCc1cn(CCCOc2ccc3ccc(=O)oc3c2)nn1 | 13.3 |
| NS(=O)(=O)c1ccc(C/N=C/c2cc(Br)ccc2OCc2cn(CCCOc3ccc4ccc(=O)oc4c3)nn2)cc1 | 17.7 |
| O=Cc1ccccc1OCc1cn(CCCOc2ccc3ccc(=O)oc3c2)nn1 | 18.9 |
| NS(=O)(=O)c1ccc(C/N=C/c2cc([N+](=O)[O-])ccc2OCc2cn(CCCOc3ccc4ccc(=O)oc4c3)nn2)cc1 | 117 |
| O=Cc1c(OCc2cn(CCCOc3ccc4ccc(=O)oc4c3)nn2)ccc2ccccc12 | 149 |
| O=Cc1cc([N+](=O)[O-])ccc1OCc1cn(CCCOc2ccc3ccc(=O)oc3c2)nn1 | 53.6 |
| C#CCOc1ccc(Br)cc1/C=N/Cc1ccc(S(N)(=O)=O)cc1 | 45.7 |

Test system: HEK-293T
Experiment: cells
Format: ADME, cell-based
Conditions: Homo sapiens, 24 h
Description: Cytotoxicity in HEK293T cells assessed as reduction in cell viability incubated for 24 hrs under hypoxic condition by MTT assay

| SMILES | IC50 [µM] |
| --- | --- |
| CCN(CC)c1ccc(C=O)c(OCc2cn(CCCOc3ccc4ccc(=O)oc4c3)nn2)c1 | 19.2 |
| NS(=O)(=O)c1ccc(C/N=C/c2c(OCc3cn(CCCOc4ccc5ccc(=O)oc5c4)nn3)ccc3ccccc23)cc1 | 119 |
| CCN(CC)c1ccc(/C=N/Cc2ccc(S(N)(=O)=O)cc2)c(OCc2cn(CCCOc3ccc4ccc(=O)oc4c3)nn2)c1 | 29.5 |
| NS(=O)(=O)c1ccc(C/N=C/c2ccccc2OCc2cn(CCCOc3ccc4ccc(=O)oc4c3)nn2)cc1 | 13.9 |
| O=Cc1cc(Br)ccc1OCc1cn(CCCOc2ccc3ccc(=O)oc3c2)nn1 | 6.08 |
| C#CCOc1c(/C=N/Cc2ccc(S(N)(=O)=O)cc2)cccc1OC | 135 |
| C#CCOc1ccc(/C=N/Cc2ccc(S(N)(=O)=O)cc2)cc1OC | 537 |
| C#CCOc1ccc(/C=N/Cc2ccc(S(N)(=O)=O)cc2)cc1 | 398 |
| COc1cccc2c1C(=O)c1c(O)c3c(c(O)c1C2=O)C[C@@](O)(C(=O)CO)C[C@@H]3O[C@H]1C[C@H](N)[C@H](O)[C@H](C)O1 [DOXORUBICIN] | 1.05 |
| COc1cccc(C=O)c1OCc1cn(CCCOc2ccc3ccc(=O)oc3c2)nn1 | 30.4 |
| NS(=O)(=O)c1ccc(C/N=C/c2cc(Br)ccc2OCc2cn(CCCOc3ccc4ccc(=O)oc4c3)nn2)cc1 | 8.25 |
| O=Cc1ccccc1OCc1cn(CCCOc2ccc3ccc(=O)oc3c2)nn1 | 13.7 |

Target: Carbonic anhydrase 12 (Homo sapiens, UniProt O43570)
Sequence (O43570 whole entry): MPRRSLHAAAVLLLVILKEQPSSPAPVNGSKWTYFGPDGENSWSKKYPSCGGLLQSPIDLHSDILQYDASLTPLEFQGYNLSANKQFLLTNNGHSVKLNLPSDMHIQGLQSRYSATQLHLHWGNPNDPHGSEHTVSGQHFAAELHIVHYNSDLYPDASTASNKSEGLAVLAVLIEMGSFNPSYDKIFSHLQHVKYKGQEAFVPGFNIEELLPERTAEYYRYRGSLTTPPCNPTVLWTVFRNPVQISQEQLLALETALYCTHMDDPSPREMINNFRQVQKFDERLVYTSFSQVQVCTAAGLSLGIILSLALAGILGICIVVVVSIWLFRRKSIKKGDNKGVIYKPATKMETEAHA
Experiment: not given
Conditions: not given

| SMILES | Ki [µM] |
| --- | --- |
| CCN(CC)c1ccc(C=O)c(OCc2cn(CCCOc3ccc4ccc(=O)oc4c3)nn2)c1 | > 10 |
| COc1cc(C=O)ccc1OCc1cn(CCCOc2ccc3ccc(=O)oc3c2)nn1 | > 10 |
| O=Cc1cc(Br)ccc1OCc1cn(CCCOc2ccc3ccc(=O)oc3c2)nn1 | > 10 |
| O=Cc1ccc(OCc2cn(CCCOc3ccc4ccc(=O)oc4c3)nn2)cc1 | > 10 |
| COc1cccc(C=O)c1OCc1cn(CCCOc2ccc3ccc(=O)oc3c2)nn1 | > 10 |
| O=Cc1c(OCc2cn(CCCOc3ccc4ccc(=O)oc4c3)nn2)ccc2ccccc12 | > 10 |
| O=Cc1cc([N+](=O)[O-])ccc1OCc1cn(CCCOc2ccc3ccc(=O)oc3c2)nn1 | > 10 |
